Measurements: ChEMBL document CHEMBL1132499, “NMR-based discovery of phosphotyrosine mimetics that bind to the Lck SH2 domain” (Bioorg Med Chem Lett, 1999)

molecular target: Tyrosine-protein kinase Lck (Homo sapiens, UniProt P06239); experiment: Binding affinity against Lck SH2 domain
Sequence (P06239 whole entry, the tested form may be a part): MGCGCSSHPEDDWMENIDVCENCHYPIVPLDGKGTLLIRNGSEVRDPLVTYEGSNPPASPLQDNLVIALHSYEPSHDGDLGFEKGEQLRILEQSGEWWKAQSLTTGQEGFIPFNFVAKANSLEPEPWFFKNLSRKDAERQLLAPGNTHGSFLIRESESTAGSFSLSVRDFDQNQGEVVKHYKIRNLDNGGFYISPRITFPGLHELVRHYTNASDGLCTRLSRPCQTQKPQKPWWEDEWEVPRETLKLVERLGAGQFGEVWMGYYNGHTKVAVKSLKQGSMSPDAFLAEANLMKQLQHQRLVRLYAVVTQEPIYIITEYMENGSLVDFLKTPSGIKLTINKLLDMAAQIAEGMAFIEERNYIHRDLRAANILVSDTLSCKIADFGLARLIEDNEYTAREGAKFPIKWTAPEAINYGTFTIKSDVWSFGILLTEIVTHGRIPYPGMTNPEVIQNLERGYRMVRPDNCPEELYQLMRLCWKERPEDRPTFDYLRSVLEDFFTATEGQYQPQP

Kd [µM]	SMILES
1300	O=C(O)c1ccccc1C(=O)n1ccnc1
1700	CCCN(CCC)C(=O)c1ccccc1C(=O)O
1600	Cc1nccn1C(=O)c1ccccc1C(=O)O
200	O=P(O)(O)Oc1cccc2ccccc12
1000	O=P(O)(O)Cc1cccc2ccccc12
200	O=C(O)c1cc(C(=O)O)cc(C(=O)O)c1
300	CCOC(=O)C(Cc1ccc(OP(=O)(O)O)cc1)NC(C)=O (stereo not given)
60	Cc1cc(C)nc(NC(=O)c2cc(C(=O)O)c(C(=O)Nc3cc(C)cc(C)n3)cc2C(=O)O)c1

More lines, now with the values behind:

SMILES	Kd [µM]
O=P(O)(O)Cc1ccccc1 [BENZYLPHOSPHONIC ACID]	5900
O=P(O)(O)c1cccc2ccccc12	1500
O=C(O)Cc1ccccc1 [PHENYLACETIC ACID]	> 50000
NC(Cc1ccc(OP(=O)(O)O)cc1)C(=O)O (stereo not given)	400
Cc1ccccc1CP(=O)(O)O	1000
O=P(O)(O)Oc1ccccc1 [PHENYL DIHYDROGEN PHOSPHATE]	300
O=C(O)c1ccccc1C(=O)O [PHTHALIC ACID]	1700
